“Also recorded” adds a separate entry of the source. Where no end group is shown, it is not given here. [ ]: non-standard residue; d: D form. pS = N[C@@H](COP(=O)(O)O)C(=O)O
Experiments:
HCE cells = assay: Hst1 localization by immunofluorescence after DTG pretreatment; format: cell-based, human; conditions: pretreatment with escalating concentrations of DTG (Fig. S4)
full-length TMEM97 = full-length TMEM97 (Homo sapiens, UniProt Q5BJF2); assay: SPR, recombinant full-length TMEM97; format: binding; conditions: Biacore 8K, pH 7.4, 25 °C
GST-TMEM97 (108-176) = GST-TMEM97 (108-176) (Homo sapiens, UniProt Q5BJF2); assay: SPR, recombinant GST-TMEM97; format: binding; conditions: Biacore 8K, pH 7.4, 25 °C
[1] = target: synthetic TMEM97 (108-176) (Homo sapiens, UniProt Q5BJF2); assay: SPR, synthetic TMEM97; format: binding; conditions: Biacore 8K, pH 7.4, 25 °C
TMEM97 (108-176) = assay: Circular dichroism, secondary structure on mixing with TMEM97; format: binding; conditions: CD, pH 7.4, 0.05% DDM, room temperature
HSC70 = conditions: cited from earlier work
[2] = Circular dichroism, secondary structure of peptide alone in solution; format: physicochemical; conditions: CD, TMEM97 (108-176) alone, pH 7.4, 0.05% DDM, room temperature, DichroWeb
[3] = target: TMEM97 (S2R) overexpressed in HEK293T cell membranes (UniProt Q5BJF2 1-176); assay: radioligand binding
[4] = target: Recombinant full-length TMEM97 (Sigma-2 receptor) (UniProt Q5BJF2 1-176); assay: SPR
[5] = target: Recombinant GST-TMEM97 (108-176) (UniProt Q5BJF2 108-176); assay: SPR
[6] = target: T1, Synthetic TMEM97 (108-176); assay: SPR
T1 peptide: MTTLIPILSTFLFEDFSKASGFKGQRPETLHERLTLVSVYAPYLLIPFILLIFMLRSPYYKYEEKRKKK

full-length TMEM97, sequence (Q5BJF2 whole entry): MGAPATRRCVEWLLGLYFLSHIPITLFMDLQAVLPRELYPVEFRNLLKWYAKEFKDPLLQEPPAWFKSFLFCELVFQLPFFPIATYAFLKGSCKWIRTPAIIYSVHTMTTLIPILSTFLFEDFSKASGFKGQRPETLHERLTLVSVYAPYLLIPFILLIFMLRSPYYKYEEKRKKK

Which “Effect on Hst1 localization” value (HCE cells) does the source give for `Cc1ccccc1NC(=N)Nc1ccccc1C` [DTG, 1,3-di-o-tolylguanidine] here?
The value was “Hst1 localization is reduced by pretreatment with DTG”.

With “HYHKFHRYYDPGSNLYKEHNHGFHHGYKDEFRREpSRDS [Hst1SP]” as the molecule, how does the “Binding by SPR (in words)” value (full-length TMEM97) read?
The value was “did not exhibit binding; also recorded: unable to bind”.

What about the “Binding by SPR (in words)” value (GST-TMEM97 (108-176)) of the same molecule?
Its value is “did not exhibit binding; also recorded: unable to bind”.

And the “Binding by SPR (in words)” value [1]?
Its value is “did not bind”.

And the “Change of secondary structure on mixing with TMEM97 (108-176)” value (TMEM97 (108-176))?
The value was “did not induce increased secondary structural features; also recorded: did not induce increased secondary structural elements”.

For “Hst3: histatin-3, histatin family peptide cited from Imamura et al. (DSHAKRHHGYKRKFHEKHHSHRGYRSNYLYDN; Histatin-3; UniProt P15516 20-51, looked up)”, which “Interaction with HSC70” value (HSC70) is on record?
Its value is “interact with, but not clearly directly bind”.

For “MTTLIPILSTFLFEDFSKASGFKGQRPETLHERLTLVSVYAPYLLIPFILLIFMLRSPYYKYEEKRKKK [TMEM97 (108-176)]”, which Turns content [2] is on record?
The Turns content was 14%.

And the Unordered content [2]?
The Unordered content was 17%.

What about the β-strand content [2] of the same molecule?
Its β-strand content is 23%.

Which Ki [3] does the source give for D[pS]HEKRHHGYRRKFHEKHHSHREFPFYGDYGSNYLYDN [Histatin-1 (Hst1)] here?
Its Ki is 0.239 µM.

What about the Kd [4] of the same molecule?
Its Kd is 5.3 µM.

And the Kd [5]?
Its Kd is 6.6 µM.

What about the Kd [6] of the same molecule?
Its Kd is 6.3 µM.

Source: publication PMC8648968 (The FEBS journal, 2021)
